The text below walks through data of ChEMBL document CHEMBL3745672, “Novel compounds reducing IRS-1 serine phosphorylation for treatment of diabetes” (Bioorg Med Chem Lett, 2016).

Experiment [1] addresses T1, Mitogen-activated protein kinase 8 (Homo sapiens, UniProt P45983). The experiment in a line: Inhibition of JNK1 (unknown origin) at 10 uM.
Experiment [2] addresses Proto-oncogene tyrosine-protein kinase receptor Ret (Homo sapiens) (UniProt P07949). The experiment is described as follows: Inhibition of RET (unknown origin) at 10 uM.
Experiment [3] has as its target Epithelial discoidin domain-containing receptor 1 (Homo sapiens) (UniProt Q08345). The experiment in a line: Inhibition of DDR1 (unknown origin) at 10 uM.
The target of experiment [4] is T2, Inhibitor of nuclear factor kappa-B kinase subunit beta (Homo sapiens) (UniProt O14920).
T2 sequence (whole entry): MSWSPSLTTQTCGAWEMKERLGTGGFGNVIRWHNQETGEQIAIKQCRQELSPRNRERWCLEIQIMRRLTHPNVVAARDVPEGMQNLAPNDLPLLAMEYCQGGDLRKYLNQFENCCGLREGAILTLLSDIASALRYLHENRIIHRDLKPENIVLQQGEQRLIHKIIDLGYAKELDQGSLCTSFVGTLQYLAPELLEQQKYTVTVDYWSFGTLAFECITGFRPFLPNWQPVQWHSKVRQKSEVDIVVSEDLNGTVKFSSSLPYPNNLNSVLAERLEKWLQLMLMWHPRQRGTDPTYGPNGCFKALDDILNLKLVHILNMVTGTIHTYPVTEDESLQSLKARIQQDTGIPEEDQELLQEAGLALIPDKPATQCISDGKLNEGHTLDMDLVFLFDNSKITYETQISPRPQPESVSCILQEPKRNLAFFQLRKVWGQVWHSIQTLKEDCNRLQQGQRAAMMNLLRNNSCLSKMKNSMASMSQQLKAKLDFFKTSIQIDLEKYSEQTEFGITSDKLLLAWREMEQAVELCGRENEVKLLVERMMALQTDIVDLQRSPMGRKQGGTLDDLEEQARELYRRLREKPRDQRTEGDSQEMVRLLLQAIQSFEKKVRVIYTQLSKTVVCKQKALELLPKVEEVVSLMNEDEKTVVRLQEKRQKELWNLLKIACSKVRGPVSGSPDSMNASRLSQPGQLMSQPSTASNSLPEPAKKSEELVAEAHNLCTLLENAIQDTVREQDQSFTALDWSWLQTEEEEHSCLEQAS
The experiment in a line: Inhibition of IKKbeta (unknown origin) at 10 uM.

Experiment [5] concerns the target Death-associated protein kinase 3 (Homo sapiens) (UniProt O43293). The experiment in a line: Inhibition of DAPK3 (unknown origin) at 10 uM.
The target of experiment [6] is T1, Mitogen-activated protein kinase 8. The experiment is described as follows: Inhibition of JNK1 (unknown origin).
Experiment [7] has as its target Tyrosine-protein kinase ABL1 (Homo sapiens) (UniProt P00519). The experiment is described as follows: Inhibition of ABL (unknown origin) at 10 uM.
Experiment [8] concerns the target T3, Tyrosine-protein kinase JAK3 (Homo sapiens) (UniProt P52333).
T3 sequence (whole entry): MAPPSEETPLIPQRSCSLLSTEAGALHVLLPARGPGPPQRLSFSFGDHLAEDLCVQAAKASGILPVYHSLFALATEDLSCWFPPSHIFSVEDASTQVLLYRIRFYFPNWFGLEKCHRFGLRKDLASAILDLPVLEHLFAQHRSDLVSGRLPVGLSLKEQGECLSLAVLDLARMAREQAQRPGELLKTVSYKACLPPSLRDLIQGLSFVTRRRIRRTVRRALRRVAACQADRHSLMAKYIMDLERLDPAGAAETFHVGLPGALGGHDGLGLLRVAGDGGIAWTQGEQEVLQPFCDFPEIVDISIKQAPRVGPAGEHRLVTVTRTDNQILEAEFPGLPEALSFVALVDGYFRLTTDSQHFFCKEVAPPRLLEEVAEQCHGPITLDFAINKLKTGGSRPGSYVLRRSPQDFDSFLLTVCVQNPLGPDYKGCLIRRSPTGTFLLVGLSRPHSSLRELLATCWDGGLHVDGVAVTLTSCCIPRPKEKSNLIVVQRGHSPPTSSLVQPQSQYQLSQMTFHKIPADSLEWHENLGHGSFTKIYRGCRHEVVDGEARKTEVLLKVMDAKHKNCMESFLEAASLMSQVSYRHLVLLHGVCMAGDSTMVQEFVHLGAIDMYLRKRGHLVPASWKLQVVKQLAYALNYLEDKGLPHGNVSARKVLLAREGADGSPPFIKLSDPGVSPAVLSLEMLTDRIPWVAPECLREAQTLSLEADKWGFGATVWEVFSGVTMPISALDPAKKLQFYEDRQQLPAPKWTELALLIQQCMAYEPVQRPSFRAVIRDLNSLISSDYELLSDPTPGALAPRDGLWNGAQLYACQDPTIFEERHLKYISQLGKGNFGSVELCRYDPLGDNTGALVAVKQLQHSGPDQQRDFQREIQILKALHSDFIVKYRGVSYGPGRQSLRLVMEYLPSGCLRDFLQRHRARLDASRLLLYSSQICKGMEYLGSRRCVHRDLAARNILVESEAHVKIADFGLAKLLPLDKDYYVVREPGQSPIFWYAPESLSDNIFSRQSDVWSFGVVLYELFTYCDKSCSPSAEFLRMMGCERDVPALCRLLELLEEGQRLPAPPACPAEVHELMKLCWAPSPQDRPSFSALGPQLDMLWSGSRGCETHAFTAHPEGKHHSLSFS
The experiment is described as follows: Inhibition of JAK3 (unknown origin) at 10 uM.

Experiment [9] addresses Receptor tyrosine-protein kinase erbB-2 (Homo sapiens) (UniProt P04626). The experiment in a line: Inhibition of ERBB2 (unknown origin) at 10 uM.
In experiment [10] the target is T1, Mitogen-activated protein kinase 8. The experiment is described as follows: Inhibition of JNK1 (unknown origin) expressed in HEK293 cells assessed as anisomycin-induced IRS-1(Ser307) phosphorylation at 10 uM incubated for 30 mins by Western blot analysis relative to anisomycin. Format: cell-based. More on the design: scale not given: the % may be the effect or the level left.

Experiment [11] deals with T4, Aurora kinase A (Homo sapiens) (UniProt O14965).
T4 sequence (whole entry): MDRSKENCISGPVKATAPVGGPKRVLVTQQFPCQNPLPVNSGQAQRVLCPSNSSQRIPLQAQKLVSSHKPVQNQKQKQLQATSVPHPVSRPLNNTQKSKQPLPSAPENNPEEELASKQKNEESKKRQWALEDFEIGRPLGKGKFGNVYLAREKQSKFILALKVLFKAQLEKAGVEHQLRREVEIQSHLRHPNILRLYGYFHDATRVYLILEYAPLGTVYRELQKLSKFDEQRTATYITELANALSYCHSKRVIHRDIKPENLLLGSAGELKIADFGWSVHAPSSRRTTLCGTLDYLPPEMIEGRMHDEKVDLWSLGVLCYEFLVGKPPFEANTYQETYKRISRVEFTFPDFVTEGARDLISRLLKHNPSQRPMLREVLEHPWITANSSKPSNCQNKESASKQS
The experiment in a line: Inhibition of AurA (unknown origin) at 10 uM.

The target in experiment [12] is Cyclin-dependent kinase 4/cyclin D1 (Homo sapiens) (UniProt P11802+P24385). The experiment in a line: Inhibition of CDK4/cyclin D1 (unknown origin) at 10 uM. In kind it is protein-complex assay.
For experiment [13], the target named is Serine/threonine-protein kinase PAK 4 (Homo sapiens) (UniProt O96013). The experiment is described as follows: Inhibition of PAK4 (unknown origin) at 10 uM.
Sequence of Serine/threonine-protein kinase PAK 4 (Homo sapiens) (O96013 whole entry, looked up): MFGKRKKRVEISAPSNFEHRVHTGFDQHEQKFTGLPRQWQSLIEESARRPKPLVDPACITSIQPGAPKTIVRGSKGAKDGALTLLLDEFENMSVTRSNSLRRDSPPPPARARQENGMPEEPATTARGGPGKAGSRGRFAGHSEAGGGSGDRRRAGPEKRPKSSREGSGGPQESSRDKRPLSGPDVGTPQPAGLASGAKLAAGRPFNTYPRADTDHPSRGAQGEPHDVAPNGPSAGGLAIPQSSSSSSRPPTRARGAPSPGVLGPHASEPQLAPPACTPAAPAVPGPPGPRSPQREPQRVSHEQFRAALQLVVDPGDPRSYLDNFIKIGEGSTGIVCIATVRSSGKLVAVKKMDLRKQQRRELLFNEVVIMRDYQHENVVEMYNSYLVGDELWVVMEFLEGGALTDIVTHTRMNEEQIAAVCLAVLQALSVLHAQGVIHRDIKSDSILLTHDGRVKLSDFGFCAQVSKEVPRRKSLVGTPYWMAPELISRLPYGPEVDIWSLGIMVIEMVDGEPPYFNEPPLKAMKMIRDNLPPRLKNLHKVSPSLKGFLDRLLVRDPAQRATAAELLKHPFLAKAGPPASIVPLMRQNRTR
The target of experiment [14] is Serine/threonine-protein kinase PAK 1 (Homo sapiens) (UniProt Q13153). The experiment in a line: Inhibition of PAK1 (unknown origin) at 10 uM.
Sequence of Serine/threonine-protein kinase PAK 1 (Homo sapiens) (Q13153 whole entry): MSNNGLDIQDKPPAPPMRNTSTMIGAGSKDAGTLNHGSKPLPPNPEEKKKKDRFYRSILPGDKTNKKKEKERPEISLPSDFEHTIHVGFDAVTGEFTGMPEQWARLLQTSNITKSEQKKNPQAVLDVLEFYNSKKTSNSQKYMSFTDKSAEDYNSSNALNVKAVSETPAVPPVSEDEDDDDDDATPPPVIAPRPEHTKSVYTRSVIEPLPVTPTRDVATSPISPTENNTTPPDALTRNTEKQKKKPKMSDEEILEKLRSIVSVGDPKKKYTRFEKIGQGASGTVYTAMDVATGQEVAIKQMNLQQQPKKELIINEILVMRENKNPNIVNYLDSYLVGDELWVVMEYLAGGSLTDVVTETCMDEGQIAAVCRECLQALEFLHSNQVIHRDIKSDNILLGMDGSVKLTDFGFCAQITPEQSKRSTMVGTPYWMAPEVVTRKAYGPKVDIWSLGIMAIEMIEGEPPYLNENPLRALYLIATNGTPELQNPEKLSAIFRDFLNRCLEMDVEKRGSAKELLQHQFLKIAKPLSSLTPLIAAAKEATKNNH

The structures appear in SMILES notation.

Sequence of Proto-oncogene tyrosine-protein kinase receptor Ret (Homo sapiens) (P07949 whole entry, the tested form may be a part): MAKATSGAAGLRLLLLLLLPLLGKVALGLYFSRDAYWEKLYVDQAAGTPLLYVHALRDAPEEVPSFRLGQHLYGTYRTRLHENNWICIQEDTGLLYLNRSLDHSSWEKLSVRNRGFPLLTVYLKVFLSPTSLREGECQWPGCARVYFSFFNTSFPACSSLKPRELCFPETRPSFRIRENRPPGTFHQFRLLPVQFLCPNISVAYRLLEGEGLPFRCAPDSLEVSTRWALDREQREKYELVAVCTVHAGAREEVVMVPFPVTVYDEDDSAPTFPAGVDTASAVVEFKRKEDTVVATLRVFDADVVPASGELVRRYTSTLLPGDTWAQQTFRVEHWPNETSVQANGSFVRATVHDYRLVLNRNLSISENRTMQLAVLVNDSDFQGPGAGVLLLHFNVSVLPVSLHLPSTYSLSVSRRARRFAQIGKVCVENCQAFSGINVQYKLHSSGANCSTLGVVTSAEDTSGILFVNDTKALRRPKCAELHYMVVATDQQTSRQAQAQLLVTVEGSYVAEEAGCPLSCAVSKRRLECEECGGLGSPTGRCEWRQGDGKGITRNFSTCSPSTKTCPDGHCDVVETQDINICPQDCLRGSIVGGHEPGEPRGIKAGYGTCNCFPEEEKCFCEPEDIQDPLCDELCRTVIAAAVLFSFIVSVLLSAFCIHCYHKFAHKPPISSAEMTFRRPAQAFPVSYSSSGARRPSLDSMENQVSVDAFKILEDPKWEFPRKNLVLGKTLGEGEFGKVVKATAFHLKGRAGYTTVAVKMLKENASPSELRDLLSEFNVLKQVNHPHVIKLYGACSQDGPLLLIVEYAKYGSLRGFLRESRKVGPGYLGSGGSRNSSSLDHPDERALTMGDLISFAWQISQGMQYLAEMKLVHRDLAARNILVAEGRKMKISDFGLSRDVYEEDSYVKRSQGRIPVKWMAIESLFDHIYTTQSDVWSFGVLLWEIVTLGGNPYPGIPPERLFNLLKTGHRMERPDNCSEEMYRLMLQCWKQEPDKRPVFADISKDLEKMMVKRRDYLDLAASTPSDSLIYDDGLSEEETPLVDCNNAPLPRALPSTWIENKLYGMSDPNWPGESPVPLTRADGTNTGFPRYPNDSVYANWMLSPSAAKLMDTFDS
Sequence of Epithelial discoidin domain-containing receptor 1 (Homo sapiens) (Q08345 whole entry, the tested form may be a part): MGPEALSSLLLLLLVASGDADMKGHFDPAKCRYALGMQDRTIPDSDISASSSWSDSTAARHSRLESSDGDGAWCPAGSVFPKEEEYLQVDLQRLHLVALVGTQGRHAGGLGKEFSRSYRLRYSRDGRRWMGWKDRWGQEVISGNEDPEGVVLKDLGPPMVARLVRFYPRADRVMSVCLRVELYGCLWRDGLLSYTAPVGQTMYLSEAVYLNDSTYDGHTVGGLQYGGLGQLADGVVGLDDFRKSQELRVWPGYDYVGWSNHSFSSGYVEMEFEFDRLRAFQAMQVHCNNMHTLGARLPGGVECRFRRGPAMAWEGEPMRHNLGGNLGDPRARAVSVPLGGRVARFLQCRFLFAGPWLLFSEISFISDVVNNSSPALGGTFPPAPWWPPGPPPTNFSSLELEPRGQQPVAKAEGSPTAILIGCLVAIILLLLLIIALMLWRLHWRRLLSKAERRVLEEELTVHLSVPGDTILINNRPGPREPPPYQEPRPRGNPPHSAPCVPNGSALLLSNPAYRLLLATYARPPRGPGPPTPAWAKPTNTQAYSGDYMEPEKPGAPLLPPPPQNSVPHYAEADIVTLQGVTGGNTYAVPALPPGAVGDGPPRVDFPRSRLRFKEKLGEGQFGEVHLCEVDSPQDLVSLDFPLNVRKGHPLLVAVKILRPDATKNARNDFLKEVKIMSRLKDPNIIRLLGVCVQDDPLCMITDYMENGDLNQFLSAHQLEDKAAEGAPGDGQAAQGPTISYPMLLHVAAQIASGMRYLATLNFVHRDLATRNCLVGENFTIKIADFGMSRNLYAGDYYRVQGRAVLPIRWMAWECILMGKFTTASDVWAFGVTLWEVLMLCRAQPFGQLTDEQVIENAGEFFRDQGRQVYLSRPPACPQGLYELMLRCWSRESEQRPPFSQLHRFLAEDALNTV
T1 sequence (P45983 whole entry): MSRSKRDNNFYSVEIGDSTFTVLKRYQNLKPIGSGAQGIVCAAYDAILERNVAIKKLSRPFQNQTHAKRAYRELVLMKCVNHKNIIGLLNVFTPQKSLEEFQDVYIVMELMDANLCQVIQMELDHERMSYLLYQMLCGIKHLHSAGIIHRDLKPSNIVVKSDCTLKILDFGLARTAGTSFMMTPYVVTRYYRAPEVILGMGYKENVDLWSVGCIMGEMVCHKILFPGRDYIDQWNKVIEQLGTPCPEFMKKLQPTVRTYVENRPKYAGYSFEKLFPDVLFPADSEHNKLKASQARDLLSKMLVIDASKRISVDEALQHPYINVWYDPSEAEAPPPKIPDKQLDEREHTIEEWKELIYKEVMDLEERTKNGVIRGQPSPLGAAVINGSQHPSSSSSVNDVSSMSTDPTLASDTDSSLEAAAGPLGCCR
Sequence of Death-associated protein kinase 3 (Homo sapiens) (O43293 whole entry, looked up): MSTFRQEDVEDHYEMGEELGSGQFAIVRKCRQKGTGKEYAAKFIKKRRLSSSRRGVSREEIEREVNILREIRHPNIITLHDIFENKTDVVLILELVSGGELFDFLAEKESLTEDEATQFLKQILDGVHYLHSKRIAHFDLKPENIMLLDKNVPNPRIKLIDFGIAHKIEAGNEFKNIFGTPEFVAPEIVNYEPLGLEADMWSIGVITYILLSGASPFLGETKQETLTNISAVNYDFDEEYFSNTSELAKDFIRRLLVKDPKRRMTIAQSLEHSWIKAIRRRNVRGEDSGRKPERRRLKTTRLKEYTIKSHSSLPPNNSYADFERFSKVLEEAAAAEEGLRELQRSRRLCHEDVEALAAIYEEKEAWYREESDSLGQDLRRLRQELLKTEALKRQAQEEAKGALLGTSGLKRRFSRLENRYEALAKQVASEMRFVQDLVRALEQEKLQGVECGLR

With `CN1CCN(c2ccc(Nc3ncc4cc(Oc5c(Cl)cccc5Cl)c(=O)n(C)c4n3)cc2)CC1`, the inhibition was 34% in [1]; 43% in experiment [2]; 89% in [3]; 0% in experiment [4]; 15% in [5]; 91% in experiment [7]. Moreover, the inhibition in experiment [8] came out at 7%; in experiment [9] it was 42%; in experiment [11] it was 12%; in experiment [12], 61%; in [13], 18%; in experiment [14], 4%. The same compound registered a half-maximal inhibitory concentration (IC50) in experiment [6] above 23 µM. Further, the Activity in experiment [10] is 13.2%.
On to `CN1CCN(c2ccc(Nc3ncc4cc(Oc5ccc(F)cc5F)c(=O)n(C)c4n3)cc2)CC1`, for which the inhibition came to 64% in experiment [1]; 98% in experiment [2]; 100% in experiment [3]; 5% in experiment [4]; 12% in [5]; 100% in experiment [7]. Besides, the inhibition in experiment [8] came to 41%; in [9], 74%; in experiment [11], 54%; in [12], 61%; in experiment [13], 0%; in experiment [14], 6%. Moreover, the half-inhibitory concentration (IC50) in [6] was determined as 3.34 µM. Moreover, the Activity in experiment [10] is 2.08%.
On to `Cn1c(=O)c(Oc2ccc(F)cc2F)cc2cnc(NC3CCN(S(N)(=O)=O)CC3)nc21`, for which, in experiment [6], half-maximal inhibition (IC50) required 0.91 µM. The Activity in experiment [10] is 0%.
For `Cn1c(=O)c(Oc2ccc(F)cc2F)cc2cnc(Nc3ccc(N4CCC(O)CC4)cc3)nc21`, the inhibition in experiment [1] was 94%; in experiment [2] it was 100%; in [3], 100%; in experiment [4] it was 16%; in experiment [5], 0%; in experiment [7], 81%. In addition, the inhibition in experiment [8] was found to be 55%; in [9] it was 78%; in experiment [11], 66%; in [12], 30%; in experiment [13], 36%; in experiment [14], 6%. Further, in experiment [6], it took 3.79 µM to reach half-maximal inhibition (IC50). Besides, the Activity in experiment [10] stood at 0%.
As to `CN1CCN(CCCNc2ncc3cc(Oc4ccc(F)cc4F)c(=O)n(C)c3n2)CC1`, the inhibition in experiment [1] was 20%; in experiment [2], 24%; in experiment [3], 91%; in experiment [4], 6%; in experiment [5], 12%; in experiment [7] it was 24%. The inhibition stood at 0% in experiment [8]; 23% in experiment [9]; 6% in experiment [11]; 6% in experiment [12]; 2% in experiment [13]; 0% in experiment [14]. Half-maximal inhibition in experiment [6] (IC50) was put at 19.1 µM. Also, the Activity in experiment [10] amounted to 0%.
`CN(C)CCNc1ncc2cc(Oc3ccc(F)cc3F)c(=O)n(C)c2n1`: the inhibition amounted to 3% in experiment [1]; 1% in experiment [2]; 51% in [3]; 3% in [4]; 0% in experiment [5]; 0% in [7]. Moreover, the inhibition was 0% in [8]; 8% in experiment [9]; 7% in experiment [11]; 17% in [12]; 20% in [13]; 0% in experiment [14]. In experiment [6], this compound had an IC50 above 23 µM. In addition, the Activity in experiment [10] turned out to be 104%.
With `Cn1c(=O)c(Oc2ccc(F)cc2F)cc2cnc(Nc3ccc(N4CCCCC4)cc3)nc21`, the inhibition in experiment [1] was 13%; in experiment [2], 46%; in [3], 99%; in [4], 13%; in experiment [5] it was 0%; in experiment [7], 20%. In addition, the inhibition in experiment [8] came out at 10%; in experiment [9] it was 26%; in [11], 14%; in experiment [12], 22%; in experiment [13] it was 29%; in experiment [14], 3%. The IC50 in experiment [6] was above 23 µM. Further, the Activity in [10] amounted to 84%.
As to `Cn1c(=O)c(Oc2ccc(F)cc2F)cc2cnc(NC3CCN(S(C)(=O)=O)CC3)nc21`, the inhibition in experiment [1] stood at 93%; in experiment [2], 0%; in experiment [3] it was 84%; in [4], 4%; in experiment [5], 2%; in experiment [7], 8%. Besides, the inhibition came out at 0% in [8]; 0% in experiment [9]; 32% in experiment [11]; 62% in experiment [12]; 5% in [13]; 8% in experiment [14]. For the same compound, in [6], half-maximal inhibition (IC50) required 0.65 µM. Further, the Activity in experiment [10] worked out at 2.72%.
Turning to `Cn1c(=O)c(Oc2c(Cl)cccc2Cl)cc2cnc(NC3CCOCC3)nc21`, the inhibition in [1] worked out at 67%; in experiment [2], 2%; in experiment [3], 33%; in [4], 3%; in experiment [5] it was 0%; in experiment [7] it was 0%. In addition, the inhibition in experiment [8] amounted to 0%; in [9], 11%; in [11], 3%; in experiment [12], 16%; in experiment [13], 14%; in [14], 0%. In experiment [6], this compound had a 50% inhibitory concentration (IC50) of 2.48 µM. In experiment [10], the Activity was 8.05%.
